Test results reported in the OligoGym collection.
Values joined by “and” are separate entries in the source; they are usually repeats but may differ in a detail not shown here. Equal values may be shown once. After the bases stand the sugars from the 5' end (letter, count) and the backbone: PS all phosphorothioate, else s phosphorothioate and o phosphodiester by linkage. Methylation of C is not given here. [mop] = methoxypropylphosphonate linkage; e = 2'-O-(2-methoxyethyl) (MOE); k = constrained ethyl (cEt); d = 2'-deoxy (DNA); m = 2'-O-methyl

Biological target: IRF5
Conditions: ASO

In the case of “TCTGATATGATACCTA (sugars k3 d1 m1 d8 k3, PS)”, the target mRNA inhibition (A-431, 0.00412 µM) is reported as 1%, the target mRNA inhibition (A-431, 0.01225 µM) is reported as 8% and the target mRNA inhibition (A-431, 0.03704 µM) is reported as 35%. It also gave a target mRNA inhibition (A-431, 0.11111 µM) of 57%, a target mRNA inhibition (A-431, 0.33333 µM) of 77% and a target mRNA inhibition (A-431, 1 µM) of 81%.

Sequence “TCTGATATGATACCTA (sugars k3 d10 k3, linkages s4 [mop]1 s10)” has a target mRNA inhibition (A-431, 0.00412 µM) of 10%, a target mRNA inhibition (A-431, 0.01225 µM) of 14% and a target mRNA inhibition (A-431, 0.03704 µM) of 43%. The target mRNA inhibition (A-431, 0.11111 µM) was 66%, the target mRNA inhibition (A-431, 0.33333 µM) was 80% and the target mRNA inhibition (A-431, 1 µM) was 87%.

With “TCTGATATGATACCTA (sugars k3 d10 k3, linkages s5 [mop]1 s9)” the target mRNA inhibition (A-431, 0.00412 µM) was 10%, the target mRNA inhibition (A-431, 0.01225 µM) was 6% and the target mRNA inhibition (A-431, 0.03704 µM) was 38%. The target mRNA inhibition (A-431, 0.11111 µM) was 56%, the target mRNA inhibition (A-431, 0.33333 µM) was 71% and the target mRNA inhibition (A-431, 1 µM) was 77%.

Sequence “TCTGGCCCTTTTGGAA (sugars kddddddddddkekek, PS)” has a target mRNA inhibition (KARPAS-229, 4 µM) of 0%.

With “TCTTGACCTCCCGCTG (sugars kddddddddddkekek, PS)” the target mRNA inhibition (KARPAS-229, 4 µM) was 46%.

Sequence TGACTGTATTACCTAT (sugars k3 d10 k3, PS) has a target mRNA inhibition (KARPAS-229, 4 µM) of 18%.

Sequence TGAGTAGGACGAGTTA (sugars k3 d10 k3, PS) has a target mRNA inhibition (KARPAS-229, 4 µM) of 18%.

With “TGAGTCATGGGCTGAG (sugars k2 d8 e4 k2, PS)” the target mRNA inhibition (KARPAS-229, 4 µM) was 15%.

Work on “TGAGTCATGGGCTGAG (sugars kddddddddkekekdd, PS)” yielded a target mRNA inhibition (KARPAS-229, 4 µM) of 0%.

For “TGAGTCATGGGCTGAG (sugars kekdddddddddeekk, PS)”, the target mRNA inhibition (KARPAS-229, 4 µM) was 12%.

“TGAGTCATGGGCTGAG (sugars kkkddddddddkekek, PS)” was tested, and the target mRNA inhibition (KARPAS-229, 4 µM) was 0%.

Work on “TGAGTCTCAAACCAGG (sugars kkdddddddddkekek, PS)” yielded a target mRNA inhibition (KARPAS-229, 4 µM) of 0%.

With “TGAGTCTCAAACCAGG (sugars kkdddkddddkekekk, PS)” the target mRNA inhibition (KARPAS-229, 4 µM) was 0%.

For “TGAGTCTCAAACCAGG (sugars kkkddddddddkekek, PS)”, the target mRNA inhibition (KARPAS-229, 4 µM) was 0%.

For “TGCACTGACACAGGCG (sugars kkkddddddddkekek, PS)”, the target mRNA inhibition (KARPAS-229, 4 µM) was 0%.

TGCAGGGAGTCAGACC (sugars k3 d10 k3, PS) was tested, and the target mRNA inhibition (KARPAS-229, 4 µM) was 0%.

TGCCTTCTGCAGGGAG (sugars k3 d10 k3, PS) showed a target mRNA inhibition (KARPAS-229, 4 µM) of 0%.

For “TGTCACATCTCCACAT (sugars kddddddddddkekek, PS)”, the target mRNA inhibition (KARPAS-229, 4 µM) was 16%.

“TGTCACATCTCCACAT (sugars kkddddddddkekekk, PS)” showed a target mRNA inhibition (KARPAS-229, 4 µM) of 0%.

“TGTCTAGTGTCATGGA (sugars k2 d9 e3 k2, PS)” was tested, and the target mRNA inhibition (A-431, 0.00412 µM) was 0% and 4%, the target mRNA inhibition (A-431, 0.01225 µM) was 0% and 2% and the target mRNA inhibition (A-431, 0.03704 µM) was 24% and 28%. For the same sequence, the target mRNA inhibition (A-431, 0.11111 µM) was 44%, the target mRNA inhibition (A-431, 0.33333 µM) was 59% and 60% and the target mRNA inhibition (A-431, 1 µM) was 69% and 74%. For the same sequence, the target mRNA inhibition (KARPAS-229, 0.44444 µM) was 33%, the target mRNA inhibition (KARPAS-229, 1.33333 µM) was 50% and the target mRNA inhibition (KARPAS-229, 4 µM) was 60% and 57%. For the same sequence, the target mRNA inhibition (KARPAS-229, 12 µM) was 70%.

With “TGTCTAGTGTCATGGA (sugars k2 d9 e3 k2, linkages s4 [mop]1 s10)” the target mRNA inhibition (A-431, 0.00412 µM) was 2%, the target mRNA inhibition (A-431, 0.01225 µM) was 11% and the target mRNA inhibition (A-431, 0.03704 µM) was 4%. The target mRNA inhibition (A-431, 0.11111 µM) was 8%, the target mRNA inhibition (A-431, 0.33333 µM) was 18% and the target mRNA inhibition (A-431, 1 µM) was 32%.

For TGTCTAGTGTCATGGA (sugars k3 d10 k3, PS), the target mRNA inhibition (KARPAS-229, 0.44444 µM) was 0%, the target mRNA inhibition (KARPAS-229, 1.33333 µM) was 42% and the target mRNA inhibition (KARPAS-229, 4 µM) was 61% and 65%. It also gave a target mRNA inhibition (KARPAS-229, 12 µM) of 74%.

In the case of “TGTCTAGTGTCATGGA (sugars kkdddddddddkekek, PS)”, the target mRNA inhibition (KARPAS-229, 4 µM) is reported as 44%.

“TGTCTAGTGTCATGGA (sugars kkdmdddddddeeekk, PS)” was tested, and the target mRNA inhibition (A-431, 0.00412 µM) was 0%, the target mRNA inhibition (A-431, 0.01225 µM) was 11% and the target mRNA inhibition (A-431, 0.03704 µM) was 5%. It also gave a target mRNA inhibition (A-431, 0.11111 µM) of 15%, a target mRNA inhibition (A-431, 0.33333 µM) of 25% and a target mRNA inhibition (A-431, 1 µM) of 33%.

“TTATCTCCGTCCTGGC (sugars k2 d8 e4 k2, PS)” was tested, and the target mRNA inhibition (KARPAS-229, 4 µM) was 0%.

With “TTATCTCCGTCCTGGC (sugars k2 d9 e3 k2, PS)” the target mRNA inhibition (KARPAS-229, 4 µM) was 5%.

Work on “TTATCTCCGTCCTGGC (sugars kkdddddddddkdkdk, PS)” yielded a target mRNA inhibition (KARPAS-229, 4 µM) of 14%.

With “TTATTTCTGCTCCAGG (sugars kdddddddddkekeke, PS)” the target mRNA inhibition (KARPAS-229, 4 µM) was 0%.

In the case of “TTATTTCTGCTCCAGG (sugars kekdddddddddeekk, PS)”, the target mRNA inhibition (KARPAS-229, 0.44444 µM) is reported as 53%, the target mRNA inhibition (KARPAS-229, 1.33333 µM) is reported as 69% and the target mRNA inhibition (KARPAS-229, 4 µM) is reported as 56% and 80%. The target mRNA inhibition (KARPAS-229, 12 µM) was 86%.

“TTCTGCAGGGAGTCAG (sugars kkddddddddkekekk, PS)” gave a target mRNA inhibition (KARPAS-229, 4 µM) of 0%.

With “TTGTCTAGTGTCATGG (sugars kkddddddddkekekk, PS)” the target mRNA inhibition (KARPAS-229, 4 µM) was 0%.

“TTGTCTAGTGTCATGG (sugars kkkddddddddkekek, PS)” showed a target mRNA inhibition (KARPAS-229, 4 µM) of 16%.

With TTTTGTGACTGTATTA (sugars k3 d10 k3, PS) the target mRNA inhibition (KARPAS-229, 4 µM) was 2%.
